Results on 31 molecules are retold here after patent publication US7875647B2, “Heteroaryl-pyrazole derivatives as cannabinoid CB1 receptor antagonists” (Green Cross Corporation, priority 2006, dated 2011).

T1 sequence (P20272 whole entry): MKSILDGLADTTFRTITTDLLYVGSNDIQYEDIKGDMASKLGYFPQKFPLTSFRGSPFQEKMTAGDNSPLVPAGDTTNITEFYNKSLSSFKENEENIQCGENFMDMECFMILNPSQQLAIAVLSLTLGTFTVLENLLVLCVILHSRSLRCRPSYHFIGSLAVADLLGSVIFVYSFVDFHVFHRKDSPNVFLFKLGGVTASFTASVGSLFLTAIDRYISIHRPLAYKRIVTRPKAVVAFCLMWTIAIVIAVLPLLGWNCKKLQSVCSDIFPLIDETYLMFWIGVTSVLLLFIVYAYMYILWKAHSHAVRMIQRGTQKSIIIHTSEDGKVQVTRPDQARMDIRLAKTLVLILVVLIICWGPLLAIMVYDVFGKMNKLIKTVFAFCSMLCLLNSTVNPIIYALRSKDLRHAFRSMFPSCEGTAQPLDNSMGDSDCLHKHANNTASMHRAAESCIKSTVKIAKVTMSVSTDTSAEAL

One experiment has as its target T1, Cannabinoid-1 receptor (CB1R) (Rattus norvegicus, UniProt P20272).
T1 construct: The tissue obtained from the brain of SD rats was homogenized; from tissue; host or cells: brain of SD rats (membrane pellet of the homogenate)
The experiment can be described thus: Cannabinoid-1 receptor (CB1R) binding affinity assay ([3H]CP-55940, rat CB-1 receptor binding protocol). The note with it: IC50(nM), brain tissue of SD rats, [3H]CP-55940, 30° C. 60 min.
On to `CCOC(C)(C)c1nnc(-c2nn(-c3ccc(Cl)cc3Cl)c(-c3ccc(Cl)cc3)c2C)o1` [Example 116, 2-(5-(4-chlorophenyl)-1-(2,4-dichlorophenyl)-4-methyl-1H-pyrazol-3-yl)-5-(2-ethoxypropan-2-yl)-1,3,4-oxadiazole], for which the IC50 (commonly the concentration that inhibits the measured activity by half) was 23.9 nM.
On to `CCCCOC(C)(C)c1nnc(-c2nn(-c3ccc(Cl)cc3Cl)c(-c3ccc(Cl)cc3)c2C)o1` [Example 243, 2-(2-butoxypropan-2-yl)-5-(5-(4-chlorophenyl)-1-(2,4-dichlorophenyl)-4-methyl-1H-pyrazol-3-yl)-1,3,4-oxadiazole], for which the IC50 came to 9.78 nM.

Still in this experiment, the particulars now being: brain tissue of SD rats, [3H]CP-55940, 30° C. 60 min; read-out: IC50.
In the case of `Clc1ccc(-c2c(Br)c(-c3nnc(C4CCCCC4)s3)nn2-c2ccc(Cl)cc2Cl)cc1` [Example 544, 2-(4-bromo-5-(4-chlorophenyl)-1-(2,4-dichlorophenyl)-1H-pyrazol-3-yl)-5-cyclohexyl-1,3,4-thiadiazole], the 50% inhibitory concentration (IC50) is 91.2 nM.
On to `CC(C)c1c(-c2nnc(C3(C(F)(F)F)CC3)s2)nn(-c2ccc(Cl)cc2Cl)c1-c1ccc(Cl)cc1` [Example 498, 2-(5-(4-chlorophenyl)-1-(2,4-dichlorophenyl)-4-isopropyl-1H-pyrazol-3-yl)-5-(1-(trifluoromethyl)cyclopropyl)-1,3,4-thiadiazole], for which the IC50 was determined as 11.4 nM.
For the molecule `CCC(C)c1nnc(-c2nn(-c3ccc(Cl)cc3)c(-c3ccc(Cl)cc3)c2C)s1` (stereo not shown) [Example 444, 2-(1,5-bis(4-chlorophenyl)-4-methyl-1H-pyrazol-3-yl)-5-sec-butyl-1,3,4-thiadiazole], the IC50 is 292 nM.
`CCCc1c(-c2nnc(C3(C(F)(F)F)CC3)o2)nn(-c2ccc(Cl)cc2Cl)c1-c1ccc(Cl)cc1` [Example 191, 2-(5-(4-chlorophenyl)-1-(2,4-dichlorophenyl)-4-propyl-1H-pyrazol-3-yl)-5-(1-(trifluoromethyl)cyclopropyl)-1,3,4-oxadiazole]: the IC50 stood at 15 nM.
For `Cc1c(-c2nnc(C(C)(C)OCc3ccccc3F)o2)nn(-c2ccc(Cl)cc2Cl)c1-c1ccc(Cl)cc1` [Example 248, 2-(5-(4-Chlorophenyl)-1-(2,4-dichlorophenyl)-4-methyl-1H-pyrazol-3-yl)-5-(2-(2-fluorobenzyloxy)propan-2-yl)-1,3,4-oxadiazole], the IC50 stood at 25.1 nM.
For the molecule `CCc1c(-c2nnc(C(C)CC)s2)nn(-c2ccc(Cl)cc2Cl)c1-c1ccc(Br)cc1` (stereo not shown) [Example 399, 2-(5-(4-bromophenyl)-1-(2,4-dichlorophenyl)-4-ethyl-1H-pyrazol-3-yl)-5-sec-butyl-1,3,4-thiadiazole], the IC50 worked out at 7.63 nM.
As to `CCc1c(-c2nnc(C3(c4ccccc4F)CC3)s2)nn(-c2ccc(Cl)cc2Cl)c1-c1ccc(Cl)cc1` [Example 501, 2-(5-(4-chlorophenyl)-1-(2,4-dichlorophenyl)-4-ethyl-1H-pyrazol-3-yl)-5-(1-(2-fluorophenyl)cyclopropyl)-1,3,4-thiadiazole], the 50% inhibitory concentration (IC50) turned out to be 6.81 nM.
Regarding `CCC(C)c1nnc(-c2nn(-c3ccc(Cl)cc3Cl)c(-c3ccc(Cl)cc3)c2C)s1` (stereo not shown) [Example 367, 2-sec-Butyl-5-(5-(4-chlorophenyl)-1-(2,4-dichlorophenyl)-4-methyl-1H-pyrazol-3-yl)-1,3,4-thiadiazole], the IC50 is 24.8 nM.
`Cc1c(-c2nnc(C(C)C3CCCCC3)o2)nn(-c2ccc(Cl)cc2Cl)c1-c1ccc(Cl)cc1` (stereo not shown) [Example 62, 2-(5-(4-chlorophenyl)-1-(2,4-dichlorophenyl)-4-methyl-1H-pyrazol-3-yl)-5-(1-cyclohexylethyl)-1,3,4-oxadiazole]: the IC50 was found to be 51.7 nM.
Take `Cc1c(-c2cc(C(C)(C)C)on2)nn(-c2ccc(Cl)cc2Cl)c1-c1ccc(Cl)cc1` [Example 650, 5-tert-butyl-3-(5-(4-chlorophenyl)-1-(2,4-dichlorophenyl)-4-methyl-1H-pyrazol-3-yl)isoxazole]: the IC50 came to 84.1 nM.
Regarding `CCc1c(-c2nnc(CC3CCCCC3)o2)nn(-c2ccc(Cl)cc2Cl)c1-c1ccc(Br)cc1` [Example 55, 2-(5-(4-bromophenyl)-1-(2,4-dichlorophenyl)-4-ethyl-1H-pyrazol-3-yl)-5-(cyclohexylmethyl)-1,3,4-oxadiazole], the IC50 came to 10.3 nM.
For `CCc1c(-c2nnc(C3CCCCC3)s2)nn(-c2ccc(Cl)cc2Cl)c1-c1ccc(Br)cc1` [Example 374, 2-(5-(4-Bromophenyl)-1-(2,4-dichlorophenyl)-4-ethyl-1H-pyrazol-3-yl)-5-cyclohexyl-1,3,4-thiadiazole], the IC50 worked out at 30.5 nM.
Turning to `CC(O)c1c(-c2nnc(C3(c4ccc(Cl)cc4)CC3)o2)nn(-c2ccc(Cl)cc2Cl)c1-c1ccc(Cl)cc1` (stereo not shown) [Example 209, 1-(5-(4-chlorophenyl)-3-(5-(1-(4-chlorophenyl)cyclopropyl)-1,3,4-oxadiazol-2-yl)-1-(2,4-dichlorophenyl)-1H-pyrazol-4-yl)ethanol], the IC50 turned out to be 5.77 nM.
Consider `CCC(C)c1nnc(-c2nn(-c3ccc(Cl)cc3Cl)c(-c3ccc(Br)cc3)c2C)s1` (stereo not shown) [Example 403, 2-(5-(4-bromophenyl)-1-(2,4-dichlorophenyl)-4-methyl-1H-pyrazol-3-yl)-5-sec-butyl-1,3,4-thiadiazole], for which the IC50 worked out at 10.7 nM.
Turning to `Cc1c(-c2nnc(C3(c4ccc(Cl)cc4Cl)CC3)o2)nn(-c2ccc(Cl)cc2Cl)c1-c1ccc(Cl)cc1` [Example 130, 2-(5-(4-chlorophenyl)-1-(2,4-dichlorophenyl)-4-methyl-1H-pyrazol-3-yl)-5-(1-(2,4-dichlorophenyl)cyclopropyl)-1,3,4-oxadiazole], the IC50 stood at 8.14 nM.
Same read-out and setting: with `CCc1c(-c2nnc(C3(c4ccc(Cl)cc4Cl)CC3)o2)nn(-c2ccc(Cl)cc2Cl)c1-c1ccc(Cl)cc1` [Example 153, 2-(5-(4-chlorophenyl)-1-(2,4-dichlorophenyl)-4-ethyl-1H-pyrazol-3-yl)-5-(1-(2,4-dichlorophenyl)cyclopropyl)-1,3,4-oxadiazole] the figure was 5.83 nM.
For the molecule `CSCc1c(-c2nnc(C(C)(C)C)o2)nn(-c2ccc(Cl)cc2Cl)c1-c1ccc(SC)cc1` [Example 311, 2-tert-butyl-5-(1-(2,4-dichlorophenyl)-5-(4-(methylthio)phenyl)-4-(methylthiomethyl)-1H-pyrazol-3-yl)-1,3,4-oxadiazole], the IC50 was determined as 25.8 nM.
With `Cc1c(-c2nnnn2C2CCCC2)nn(-c2ccc(Cl)cc2Cl)c1-c1ccc(Cl)cc1` [Example 577, 5-(5-(4-Chlorophenyl)-1-(2,4-dichlorophenyl)-4-methyl-1H-pyrazol-3-yl)-1-cyclopentyl-1H-tetrazole], the concentration for half-maximal inhibition (IC50) stood at 26.5 nM.
With `CCc1c(-c2nnc(C3(c4ccccc4)CC3)s2)nn(-c2ccc(Cl)cc2Cl)c1-c1ccc(Br)cc1` [Example 450, 2-(5-(4-bromophenyl)-1-(2,4-dichlorophenyl)-4-ethyl-1H-pyrazol-3-yl)-5-(1-phenylcyclopropyl)-1,3,4-thiadiazole], the IC50 was 7.42 nM.
Still for that read-out and setting: in the case of `CCCCCn1nnc(-c2nn(-c3ccc(Cl)cc3Cl)c(-c3ccc(Cl)cc3)c2C)n1` [Example 574, 5-(5-(4-Chlorophenyl)-1-(2,4-dichlorophenyl)-4-methyl-1H-pyrazol-3-yl)-2-pentyl-2H-tetrazole] it was 122 nM; in that of `Clc1ccc(-c2c(Br)c(-c3nnc(C4CCC4)o3)nn2-c2ccc(Cl)cc2Cl)cc1` [Example 340, 2-(4-bromo-5-(4-chlorophenyl)-1-(2,4-dichlorophenyl)-1H-pyrazol-3-yl)-5-cyclobutyl-1,3,4-oxadiazole], 35.5 nM.
In the case of `Clc1ccc(-c2c(Cn3cncn3)c(-c3nnc(C4(c5ccccc5)CCCC4)o3)nn2-c2ccc(Cl)cc2Cl)cc1` [Example 323, 2-(4-((1H-1,2,4-triazol-1-yl)methyl)-5-(4-chlorophenyl)-1-(2,4-dichlorophenyl)-1H-pyrazol-3-yl)-5-(1-phenylcyclopentyl)-1,3,4-oxadiazole], the IC50 was found to be 5.29 nM.
For `Cc1c(-c2nnc(C3CCCCC3)s2)nn(-c2ccc(Cl)cc2Cl)c1-c1ccc(Br)cc1` [Example 373, 2-(5-(4-Bromophenyl)-1-(2,4-dichlorophenyl)-4-methyl-1H-pyrazol-3-yl)-5-cyclohexyl-1,3,4-thiadiazole], the IC50 came out at 20.5 nM.
Turning to `CCc1c(-c2nnc(C3(c4ccc(C)cc4)CC3)o2)nn(-c2ccc(Cl)cc2Cl)c1-c1ccc(Br)cc1` [Example 176, 2-(5-(4-bromophenyl)-1-(2,4-dichlorophenyl)-4-ethyl-1H-pyrazol-3-yl)-5-(1-p-tolylcyclopropyl)-1,3,4-oxadiazole], the half-inhibitory concentration (IC50) worked out at 4.47 nM.
On to `CC(C)(C)c1nnc(-c2nn(-c3ccc(Cl)cc3Cl)c(-c3ccc(Cl)cc3)c2C=O)o1` [Example 202, 3-(5-tert-butyl-1,3,4-oxadiazol-2-yl)-5-(4-chlorophenyl)-1-(2,4-dichlorophenyl)-1H-pyrazole-4-carbaldehyde], for which the IC50 was 36.2 nM.
In the case of `CCC(C)(C)c1nnc(-c2nn(-c3ccccc3Cl)c(-c3ccc(Br)cc3)c2C)s1` [Example 429, 2-(5-(4-bromophenyl)-1-(2-chlorophenyl)-4-methyl-1H-pyrazol-3-yl)-5-tert-pentyl-1,3,4-thiadiazole], the IC50 is 8.67 nM.
Turning to `Cc1c(-c2nnc(C3CCCC3)s2)nn(-c2ccc(Cl)cc2Cl)c1-c1ccc(Br)cc1` [Example 366, 2-(5-(4-Bromophenyl)-1-(2,4-dichlorophenyl)-4-methyl-1H-pyrazol-3-yl)-5-cyclopentyl-1,3,4-thiadiazole], the IC50 amounted to 18.1 nM.
Regarding `CCC1(c2nnc(-c3nn(-c4ccc(Cl)cc4Cl)c(-c4ccc(Cl)cc4)c3C)o2)CC1` [Example 277, 2-(5-(4-chlorophenyl)-1-(2,4-dichlorophenyl)-4-methyl-1H-pyrazol-3-yl)-5-(1-ethylcyclopropyl)-1,3,4-oxadiazole], the IC50 is 12.6 nM.
On to `CCC(C)c1nnc(-c2nn(-c3ccccc3Cl)c(-c3ccc(Cl)cc3)c2C)s1` (stereo not shown) [Example 407, 2-sec-butyl-5-(1-(2-chlorophenyl)-5-(4-chlorophenyl)-4-methyl-1H-pyrazol-3-yl)-1,3,4-thiadiazole], for which the IC50 was 18.4 nM.
